In patent US20240246935A1 (Plexium, Inc., priority 2021, published 2024):

Columns and labels:
[1] = test system: IKZF2 (Helios); experiment: IKZF2 reporter degradation assay (HEK 293T IKZF2-mNeonGreen reporter cell line); type: cell-based, human; details: 1 μM compound, 24 hour incubation, HEK 293T IKZF2-mNeonGreen reporter
From the text: Polycistronic plasmids were constructed for the mammalian expression of fluorescent reporter fusions of human transcription factors IKZF1 (Ikaros), IKZF2 (Helios), and IKZF3 (Aiolos). The respective protein sequences had their C-terminal end joined to a GGGGS linker repeated three times followed by mNeonGreen, P2A sequence, and mScarlet. The DNA sequences of the open reading frames are as follows:
IKZF1, IKZF2, and IKZF3 constructs were cloned into the UCOE Hygromycin expression vectors (Millipore Sigma). Reporter constructs were transfected using cationic lipid reagents into adherent HEK 293T cells and stable integrants were selected by treatment with 200 μg/mL hygromycin B. Clonal populations were obtained from the population of stable integrants either by limiting dilution or fluorescence activated cell sorting.
The clonal stable cell lines were maintained under constant 200 μg/mL hygromycin B selection while being passaged for use in the degradation assays. […] The fluorescence intensity of the IKZF1/2/3-mNeonGreen (FITC channel) and mScarlet (PE channel) reporters were routinely analyzed by flow cytometry to confirm consistent expression levels between experiments.
The IKZF1/IKZF2/IKZF3 degradation assays were carried out by harvesting the HEK 293T reporter cell lines and resuspending the cells in media formulated for reduced background fluorescence (FluoroBrite; Thermo Fisher). The respective cell lines were seeded at a density of 4000 cells/well into black-walled 384-well optical grade assay tissue culture plates. The cells were incubated overnight at 37° C. to allow for attachment to the assay plate. Dilutions of the compounds were prepared in DMSO from 10 mM compound stocks. The assay plates were treated with appropriate concentrations of the compounds by dispensing the DMSO dilutions in quadruplicate wells with an upper limit of 0.5% final DMSO.
After 24 hour incubation with the compounds, the assay plates were imaged on an ImageXpress Pico microscopy system (cells maintained at 37° C. during imaging) to obtain the fluorescent readouts. The assay plates were imaged in the FITC and Tetramethylrhodamine (TRITC) channels to obtain the mNeonGreen fluorescence intensity (reporter degradation data) and mScarlet fluorescence intensity (for cell segmentation). 293T-IKZF1 and 293T-IKZF3 reporter cell lines were imaged with exposures of 500 milliseconds (ms) for both FITC and TRITC channels, while the 293T-IKZF2 reporter cell line was imaged with exposures of 1000 ms for FITC and 1250 ms for TRITC. The resulting data was analyzed with Cell Reporter Xpress software using the 2-channel cell scoring analysis with a “percent positive” readout. The TRITC channel was selected for the “nuclei” segmentation with a threshold of 20 while the FITC channel was selected for the “Marker 1” segmentation and a threshold of 100 for the IKZF1 and IKZF3 reporter lines. […] The minimum segmentation width was set to 6 micrometers and the maximum segmentation width was set to 15 micrometers for all cell lines. The DCs calculations were determined by regression to best fit four-parameter logistic curves using GraphPad Prism.

[2] = target: human E3 ligase component cereblon (CRBN) (Homo sapiens (Human), UniProt Q96SW2); experiment: Cereblon (CRBN) target engagement, NanoBRET TE Intracellular E3 Ligase Assay in transfected HEK-293T cells; details: read-out: CRBN Binding EC50
Protocol: HEK293T cells were harvested ca. 75% confluent with trypsin and plated (500,000 cells/well) in a 6-well tissue culture plate in 2 mL of Dulbecco's Modified Eagle Medium (DMEM)+10% Fetal Bovine Serum (FBS) and incubated overnight at 37° C.
The NanoLuc-CRBN fusion vector (Nluc-CRBN; Promega) contains the coding region of human E3 ligase component cereblon (CRBN) fused to the C-terminus of the NanoLuc luciferase coding region. A mixture of 10 ng Nluc-CRBN and 990 ng DDB1 Expression Vector (Promega) was added to 125 μL Opti-Minimum Essential Medium (Opti-MEM™; Thermo Fisher) along with 2 μL P3000 reagent (Thermo Fisher) in a 1.5 mL epppendorf tube. This solution was added to Lipofectamine 3000 transfection reagent (5 μL; Thermo Fisher) in Opti-MEM (125 μL), mixed well, and incubated for 15 minutes at room temperature. The transfection mixture was added dropwise to cells and incubated overnight at 37° ° C., 5% CO2. Following transfection, cells were washed once with PBS, and trypsin (250 μL) was added and incubated 30-45 sec to dislodge cells. Complete media (2 mL) was added to resuspend cells to form a single cell suspension. Cells were centrifuged at 320×g for 5 min at room temperature, the supernatant was removed, and the cell pellet resuspended in Opti-MEM (3 mL; wash step repeated×2). After final resuspension in 5 mL Opti-MEM, cells were counted and resuspended at 200,000 cells/mL in Opti-MEM.
Cereblon target engagement was monitored by Bioluminescence Resonance Energy Transfer (BRET) in transfected HEK-293T cells using the NanoBRET TE Intracellular E3 Ligase Assay (Promega). Briefly, 384-well plates (white opaque plates, Corning 3574, low binding surface) were seeded with transfected HEK-293T cells (38 μL/well). 2 μL of 10 μM CRBN tracer (diluted 1:5 in Tracer Dilution Buffer) was added to each well. Plates were centrifuged at 320×g for 1 min at room temperature. Test compounds were added in a 11-point dilution series (typically 10 μM to […]) using a TECAN D300e Digital Dispenser. Plates were shaken for 2 minutes on a microplate shaker to mix compounds. Plates were centrifuged at 320×g for 1 min at room temperature, and subsequently incubated for 2 hours at 37° C.
After incubation, plates were allowed to cool to room temperature for 15 minutes. 20 μL of 3× Complete NanoBRET™ Nano-Glo® Substrate plus Inhibitor Solution (Promega, 1:166 Substrate and 1:500 dilution of Extracellular NanoLuc® Inhibitor diluted in Opti-MEM) were added to each well. Plates were incubated with shaking at room temperature for 3 minutes covered with foil. Plates were read on a CLARIOstar microplate reader (BMG LabTech), measuring at 450 nm (donor emission) and 610 nm (acceptor emission). The IC50 values were determined by regression to best fit four-parameter logistic curves using GraphPad Prism.

human E3 ligase component cereblon (CRBN), sequence (Q96SW2 whole entry): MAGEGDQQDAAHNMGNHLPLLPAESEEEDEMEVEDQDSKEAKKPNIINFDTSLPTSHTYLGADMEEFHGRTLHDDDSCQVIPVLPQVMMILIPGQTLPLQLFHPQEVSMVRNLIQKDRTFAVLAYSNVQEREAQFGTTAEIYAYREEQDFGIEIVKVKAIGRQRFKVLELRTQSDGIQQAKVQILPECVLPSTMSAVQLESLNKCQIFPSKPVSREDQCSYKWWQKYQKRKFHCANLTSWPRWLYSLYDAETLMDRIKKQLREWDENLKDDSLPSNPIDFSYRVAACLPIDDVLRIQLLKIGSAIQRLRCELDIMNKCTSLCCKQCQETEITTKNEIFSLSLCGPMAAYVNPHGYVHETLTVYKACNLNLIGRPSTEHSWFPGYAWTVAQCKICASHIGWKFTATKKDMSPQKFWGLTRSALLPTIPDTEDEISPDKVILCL
human E3 ligase component cereblon (CRBN), sequence (Q16531 whole entry partner): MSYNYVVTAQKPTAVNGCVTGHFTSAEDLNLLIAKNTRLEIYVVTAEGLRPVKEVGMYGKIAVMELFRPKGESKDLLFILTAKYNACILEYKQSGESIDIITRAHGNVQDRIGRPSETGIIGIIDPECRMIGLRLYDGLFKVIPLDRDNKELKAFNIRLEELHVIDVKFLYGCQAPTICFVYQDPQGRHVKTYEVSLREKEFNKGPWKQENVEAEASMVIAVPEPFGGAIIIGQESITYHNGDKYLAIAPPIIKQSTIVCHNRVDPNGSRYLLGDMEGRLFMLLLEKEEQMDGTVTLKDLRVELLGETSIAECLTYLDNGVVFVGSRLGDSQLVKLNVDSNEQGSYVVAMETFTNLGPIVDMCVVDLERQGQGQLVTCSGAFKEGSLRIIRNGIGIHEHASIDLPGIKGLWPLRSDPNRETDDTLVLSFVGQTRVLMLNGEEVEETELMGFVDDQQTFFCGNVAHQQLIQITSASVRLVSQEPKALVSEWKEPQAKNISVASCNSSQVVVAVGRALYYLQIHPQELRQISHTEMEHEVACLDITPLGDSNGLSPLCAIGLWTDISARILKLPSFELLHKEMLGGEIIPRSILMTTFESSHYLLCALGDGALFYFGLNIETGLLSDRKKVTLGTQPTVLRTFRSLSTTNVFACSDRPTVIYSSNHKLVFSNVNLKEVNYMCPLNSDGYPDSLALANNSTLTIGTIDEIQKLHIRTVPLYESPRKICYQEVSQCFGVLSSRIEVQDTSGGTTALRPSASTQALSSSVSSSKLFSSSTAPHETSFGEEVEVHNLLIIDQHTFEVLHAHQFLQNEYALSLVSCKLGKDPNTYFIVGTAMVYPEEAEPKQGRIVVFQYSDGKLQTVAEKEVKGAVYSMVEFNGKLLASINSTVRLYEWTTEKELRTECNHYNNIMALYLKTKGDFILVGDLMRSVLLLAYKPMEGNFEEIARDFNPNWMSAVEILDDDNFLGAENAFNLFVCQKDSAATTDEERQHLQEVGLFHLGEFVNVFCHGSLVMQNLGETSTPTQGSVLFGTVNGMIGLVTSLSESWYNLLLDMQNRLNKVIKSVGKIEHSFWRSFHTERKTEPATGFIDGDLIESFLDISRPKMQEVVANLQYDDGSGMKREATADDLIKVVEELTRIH

| EC50 [2] [nM] | Compound | IKZF2 % Degradation @ 1 μM [1] [%] |
| --- | --- | --- |
| 24 | N#Cc1ccc(C2CN([C@H]3CCCC[C@@H]3Oc3ccc4c(c3)CN(C3CCC(=O)NC3=O)C4=O)C2)c(F)c1 (mixture of isomers) [Compound 116, Rac-4-(1-((trans)-2-((2-(2,6-dioxopiperidin-3-yl)-1-oxoisoindolin-5-yl)oxy)cyclohexyl)azetidin-3-yl)-3-fluorobenzonitrile] | <15 |
| 8 | N#Cc1ccc(C2CN([C@H]3CCCC[C@@H]3Oc3ccc4c(c3)CN(C3CCC(=O)NC3=O)C4=O)C2)cc1F (mixture of isomers) [Compound 119, Rac-4-(1-((trans)-2-((2-(2,6-dioxopiperidin-3-yl)-1-oxoisoindolin-5-yl)oxy)cyclohexyl)azetidin-3-yl)-2-fluorobenzonitrile] | 63.8 |
| 20 | N#Cc1ccc(C2CN([C@@H]3CCCC[C@@H]3Oc3ccc4c(c3)CN(C3CCC(=O)NC3=O)C4=O)C2)cc1F (mixture of isomers) [Compound 122, rac-4-(1-((cis)-2-((2-(2,6-dioxopiperidin-3-yl)-1-oxoisoindolin-5-yl)oxy)cyclohexyl)azetidin-3-yl)-2-fluorobenzonitrile] | <15 |
| 89 | O=C1CCC(N2Cc3cc(O[C@@H]4CCCC[C@H]4N4CCC4c4ccccc4)ccc3C2=O)C(=O)N1 (stereo partly drawn) [Compound 54, 3-(1-oxo-5-(((1R,2R)-2-(2-phenylazetidin-1-yl)cyclohexyl)oxy)isoindolin-2-yl)piperidine-2,6-dione] | <15 |
| 158 | O=C1CCC(N2Cc3cc(O[C@H]4CCCC[C@@H]4N4CCC4c4ccccc4)ccc3C2=O)C(=O)N1 (stereo partly drawn) [Compound 55, 3-(1-oxo-5-(((1S,2S)-2-(2-phenylazetidin-1-yl)cyclohexyl)oxy)isoindolin-2-yl)piperidine-2,6-dione] | 38.1 |
| 239 | O=C1CCC(N2Cc3cc(O[C@H]4CCCC[C@H]4N4CCC4c4ccccc4)ccc3C2=O)C(=O)N1 (stereo partly drawn) [Compound 56, 3-(1-oxo-5-(((1S,2R)-2-(2-phenylazetidin-1-yl)cyclohexyl)oxy)isoindolin-2-yl)piperidine-2,6-dione] | <15 |

The remaining lines, values behind:

| Compound | EC50 [2] [nM] | IKZF2 % Degradation @ 1 μM [1] [%] |
| --- | --- | --- |
| N#Cc1cc(Cl)ccc1C1CN([C@@H]2CCCC[C@@H]2Oc2ccc3c(c2)CN(C2CCC(=O)NC2=O)C3=O)C1 (single isomer, unassigned) [Compound 37] | 25 | <15 |
| N#Cc1cc(Cl)ccc1C1CN([C@H]2CCCC[C@@H]2Oc2ccc3c(c2)CN(C2CCC(=O)NC2=O)C3=O)C1 (single isomer, unassigned) [Compound 38] | 52 | 84.9 |
| N#Cc1cc(Cl)ccc1C1CN([C@H]2CCCC[C@@H]2Oc2ccc3c(c2)CN(C2CCC(=O)NC2=O)C3=O)C1 (single isomer, unassigned) [Compound 39] | 8 | 84.6 |
| O=C1CCC(N2Cc3c(ccc(O[C@H]4CCCC[C@@H]4N4CC(c5ccccc5)C4)c3Cl)C2=O)C(=O)N1 (single isomer, unassigned) [Compound 41] | 61 | <15 |
| O=C1CCC(N2Cc3c(ccc(O[C@H]4CCCC[C@@H]4N4CC(c5ccccc5)C4)c3Cl)C2=O)C(=O)N1 (single isomer, unassigned) [Compound 42] | 43 | <15 |
| N#Cc1cc(F)ccc1C1CN([C@@H]2CCCC[C@H]2Oc2ccc3c(c2)CN(C2CCC(=O)NC2=O)C3=O)C1 (single isomer, unassigned) [Compound 43] | 42 | <15 |
| N#Cc1cc(F)ccc1C1CN([C@H]2CCCC[C@@H]2Oc2ccc3c(c2)CN(C2CCC(=O)NC2=O)C3=O)C1 (single isomer, unassigned) [Compound 44] | 65 | 85.6 |
| N#Cc1cc(F)ccc1C1CN([C@H]2CCCC[C@@H]2Oc2ccc3c(c2)CN(C2CCC(=O)NC2=O)C3=O)C1 (single isomer, unassigned) [Compound 45] | 22 | 88 |
| N#Cc1ccc(C2CN([C@H]3CCCC[C@@H]3Oc3ccc4c(c3)CN(C3CCC(=O)NC3=O)C4=O)C2)c(Cl)c1 (single isomer, unassigned) [Compound 47] | 5 | 86.7 |
| N#Cc1ccc(C2CN([C@H]3CCCC[C@@H]3Oc3ccc4c(c3)CN(C3CCC(=O)NC3=O)C4=O)C2)c(Cl)c1 (single isomer, unassigned) [Compound 48] | 45 | 78.9 |
| O=C1CCC(N2Cc3cc(O[C@H]4CCCC[C@@H]4N4CC(c5ccc(F)cc5)C4)ccc3C2=O)C(=O)N1 (single isomer, unassigned) [Compound 51] | 18 | 74.2 |
| O=C1CCC(N2Cc3cc(O[C@H]4CCCC[C@@H]4N4CC(c5ccccc5)C4)c(F)cc3C2=O)C(=O)N1 (single isomer, unassigned) [Compound 53] | 29 | 86.9 |
| N#Cc1cc(Cl)ccc1C1CN([C@H]2CCCC[C@H]2Oc2ccc3c(c2)CN(C2CCC(=O)NC2=O)C3=O)C1 (stereo partly drawn) [Compound 40, 5-chloro-2-(1-((1S,2R)-2-((2-(2,6-dioxopiperidin-3-yl)-1-oxoisoindolin-5-yl)oxy)cyclohexyl)azetidin-3-yl)benzonitrile] | 11 | <15 |
| N#Cc1cc(F)ccc1C1CN([C@H]2CCCC[C@H]2Oc2ccc3c(c2)CN(C2CCC(=O)NC2=O)C3=O)C1 (stereo partly drawn) [Compound 46, 2-(1-((1S,2R)-2-((2-(2,6-dioxopiperidin-3-yl)-1-oxoisoindolin-5-yl)oxy)cyclohexyl)azetidin-3-yl)-5-fluorobenzonitrile] | 22 | <15 |
| N#Cc1ccc(C2CN([C@H]3CCCC[C@H]3Oc3ccc4c(c3)CN(C3CCC(=O)NC3=O)C4=O)C2)c(Cl)c1 (stereo partly drawn) [Compound 49, 3-chloro-4-(1-((1S,2R)-2-((2-(2,6-dioxopiperidin-3-yl)-1-oxoisoindolin-5-yl)oxy)cyclohexyl)azetidin-3-yl)benzonitrile] | 11 | <15 |
